Assay results published in publication PMC5983544, “Muscarinic M5 receptors modulate ethanol seeking in rats” (Neuropsychopharmacology, 2018).

Key:
[1] = system: ethanol-preferring (iP) rats; assay: Cue-induced reinstatement of ethanol seeking; format: in vivo, rat; conditions: 3 × 30 mg/kg p.o.
Procedure: A separate cohort of rats (n = 11) underwent 12 weeks of operant ethanol (10% v/v) self-administration followed by extinction training, where lever presses had no programmed consequences. Extinction occurred in the absence of CS+ and S+ cues. […] Subsequently, rats were tested for cue-induced reinstatement by re-introduction of the ethanol-paired CS+ and S+ cues, but in the absence of reward delivery. Rats were then re-extinguished and submitted to a second reinstatement session with the counterbalanced treatment.

[2] = molecular target: T1, σ1 receptor (Mus musculus, UniProt O55242); assay: [3H](+)-pentazocine binding in mouse brain homogenates; conditions: ML375 at concentrations up to 10 μM
T1 construct: from tissue; host or cells: mouse brain homogenates
T1 sequence (O55242 whole entry): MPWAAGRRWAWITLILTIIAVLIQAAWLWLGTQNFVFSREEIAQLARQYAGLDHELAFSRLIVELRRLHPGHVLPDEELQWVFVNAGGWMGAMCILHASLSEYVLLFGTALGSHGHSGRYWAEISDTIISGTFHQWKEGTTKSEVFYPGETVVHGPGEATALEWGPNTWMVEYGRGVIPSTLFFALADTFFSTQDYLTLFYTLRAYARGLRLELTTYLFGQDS
Procedure: (§1) [^3H]NMS equilibrium binding assays in CHO-rM1 to CHO-rM5 cells were performed as previously described for CHO-hM5 cells. For [^35S]GTPγS binding, CHO-rM2 and CHO-rM4 cell membranes were prepared as described in Supplementary information. Membrane [^35S]GTPγS binding was performed as described in ref [26]., except GDP and [^35S]GTPγS concentrations were 1 μM and 0.3 nM, respectively. [^3H](+)-pentazocine binding was performed as described in ref. [27].
(§2) Sigma-1 data are expressed as a percentage of specific [^3H]-(+)-pentazocine binding; ERK1/2 phosphorylation data are expressed percentage of the response to 10% FBS. Data represent the mean ± S.E.M. of 5-7 independent experiments performed in duplicate or triplicate.

[3] = molecular target: T2, human cannabinoid 1 receptor (hCB1) (Homo sapiens, UniProt P21554); assay: CHO-hCB1 ERK1/2 phosphorylation assay; format: cell-based
T2 construct: expressed in transfected cells; host or cells: FlpIn CHO cells (Invitrogen)
T2 sequence (P21554 whole entry): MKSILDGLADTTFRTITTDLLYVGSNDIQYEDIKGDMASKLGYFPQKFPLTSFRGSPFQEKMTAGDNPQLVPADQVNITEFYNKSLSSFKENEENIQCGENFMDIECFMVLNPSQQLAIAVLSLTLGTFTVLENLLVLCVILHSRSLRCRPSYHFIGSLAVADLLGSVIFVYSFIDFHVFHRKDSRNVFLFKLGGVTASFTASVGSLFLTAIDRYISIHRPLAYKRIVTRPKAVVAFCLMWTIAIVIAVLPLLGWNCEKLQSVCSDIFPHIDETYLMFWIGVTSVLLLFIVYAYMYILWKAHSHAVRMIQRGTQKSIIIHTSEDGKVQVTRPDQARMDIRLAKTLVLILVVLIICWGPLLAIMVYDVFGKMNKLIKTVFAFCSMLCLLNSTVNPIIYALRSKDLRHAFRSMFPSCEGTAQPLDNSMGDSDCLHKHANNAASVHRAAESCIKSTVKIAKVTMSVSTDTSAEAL
Procedure: (§3) Rat mAChR subtypes (rM1–rM5; Origene) and human cannabinoid 1 receptor (hCB1; ref. [24]) constructs were isogenically integrated into FlpIn CHO cells (Invitrogen) and cells were selected in the presence of […] hygromycin B at 37 °C, 5% CO2, as previously described for the human M1 mAChR [25]. All cells were sub-cultured and seeded as previously described for the CHO-hM5 cells.
(§4) The IP-One assay kit (Cisbio) was used for the direct quantitative measurement of inositol phosphate (IP) accumulation in CHO-rM1, CHO-rM3 or CHO-rM5 cells, as described previously. The CHO-hCB1 pERK1/2 assays were performed as described in ref [24].
as §2

[4] = molecular target: T3, rat M1 mAChR (Rattus norvegicus, UniProt P08482); assay: [3H]NMS equilibrium binding in whole CHO-rM1 cells; conditions: rM1, [3H]NMS binding
T3 construct: host or cells: FlpIn CHO cells (Invitrogen)
T3 sequence (P08482 1-460): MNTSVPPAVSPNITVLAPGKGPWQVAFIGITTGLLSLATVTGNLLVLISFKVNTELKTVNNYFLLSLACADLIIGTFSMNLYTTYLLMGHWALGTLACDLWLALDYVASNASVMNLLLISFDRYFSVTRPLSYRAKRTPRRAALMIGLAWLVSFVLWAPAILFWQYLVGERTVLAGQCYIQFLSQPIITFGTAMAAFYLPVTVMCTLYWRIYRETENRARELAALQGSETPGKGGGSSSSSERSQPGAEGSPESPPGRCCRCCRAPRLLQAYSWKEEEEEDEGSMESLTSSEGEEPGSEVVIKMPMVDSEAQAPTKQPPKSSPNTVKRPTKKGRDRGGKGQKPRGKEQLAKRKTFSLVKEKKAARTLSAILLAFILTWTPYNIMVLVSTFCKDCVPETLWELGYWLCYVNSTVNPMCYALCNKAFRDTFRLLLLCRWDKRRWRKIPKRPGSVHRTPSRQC
Procedure: as §3, §1

[5] = molecular target: T4, rat M2 mAChR (Rattus norvegicus, UniProt P10980); assay: ACh-stimulated [35S]GTPγS binding in CHO-rM2 cell membranes; format: biochemical; conditions: rM2, [35S]GTPγS binding
T4 construct: host or cells: FlpIn CHO cells (Invitrogen)
T4 sequence (P10980 1-466): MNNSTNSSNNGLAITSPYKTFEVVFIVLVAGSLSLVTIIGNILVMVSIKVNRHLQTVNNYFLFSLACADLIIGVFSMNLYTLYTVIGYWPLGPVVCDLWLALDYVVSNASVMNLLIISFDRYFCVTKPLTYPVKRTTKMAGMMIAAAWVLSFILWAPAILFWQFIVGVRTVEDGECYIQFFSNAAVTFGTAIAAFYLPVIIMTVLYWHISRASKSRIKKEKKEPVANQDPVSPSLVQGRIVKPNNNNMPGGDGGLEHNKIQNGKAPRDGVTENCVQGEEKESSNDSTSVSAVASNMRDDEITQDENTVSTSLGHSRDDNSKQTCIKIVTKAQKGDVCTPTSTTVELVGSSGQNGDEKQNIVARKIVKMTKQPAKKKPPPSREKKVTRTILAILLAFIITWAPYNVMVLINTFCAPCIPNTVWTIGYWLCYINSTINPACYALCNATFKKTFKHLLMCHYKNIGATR
Procedure: as §1

[6] = system: ethanol-preferring (iP) rats; assay: Operant sucrose self-administration, oral dosing; format: in vivo, rat; conditions: 30 mg/kg p.o. x3
Text: A separate cohort of rats were trained to self-administer sucrose (0.05–1% w/v). Rats underwent an identical dosing regimen of vehicle or ML375 before testing.

[7] = molecular target: hM5 mAChR; conditions: same assay; cited from earlier work
[8] = molecular target: T3, rat M1 mAChR; assay: ACh-stimulated IP accumulation (IP-One) in CHO-rM1 cells; format: cell-based
Procedure: as §4

[9] = system: ethanol-preferring (iP) rats; assay: Operant ethanol self-administration, oral dosing; format: in vivo, rat
Text: Male iP rats (n = 14) were trained to self-administer 10% (v/v) ethanol via lever presses under FR3 operant conditions for approximately 12 weeks, in the presence of a 1-s light conditioned stimulus (CS+) occurring when the ethanol solution was delivered and an olfactory cue (S+ cue; one drop of vanilla essence, placed directly below the ethanol-paired (active) lever), as previously described, followed by surgery and testing. […] Rats were then given 7 days of ethanol self-administration before receiving the alternate treatment in a counterbalanced manner. For full details refer to Supplementary material.

[10] = system: ethanol-preferring (iP) rats; assay: Locomotor activity; format: in vivo, rat; conditions: 60 min
Procedure: Rats (n = 6) were habituated to the locomotor room for at least 3 h.

[11] = system: hM5 mAChR; conditions: cited from earlier work

- effect on [3H](+)-pentazocine binding [2]: no apparent effect
- effect in ERK1/2 phosphorylation assays ([3]; CHO-hCB1, concentrations up to 10 μM): no apparent effect
- agonist activity, ERK1/2 phosphorylation ([3]; FlpIn-CHO hCB1, agonist mode): no agonist activity
- inhibition of WIN 55212-2 (1µM)-stimulated ERK 1/2 phosphorylation ([3]; FlpIn-CHO hCB1, antagonist mode): failed to inhibit
- effect on ACh affinity [4]: no significant effects
- effect on ACh potency [5]: no significant effects
- effect on ACh potency [8]: no significant effects
- latency to first water response vs vehicle ([9]; 30 mg/kg p.o. at 3 h, 11 h and 27 h prior to testing, P = 0.037): extends the latency
- latency to first ethanol reward vs vehicle ([9]; 30 mg/kg p.o., P = 0.73): no difference
- locomotor activity vs vehicle ([10]; 30 mg/kg p.o., P = 0.53): no difference
- locomotor activity vs vehicle ([10]; 56.6 mg/kg p.o., P = 0.016): did reduce locomotor activity
SMILES: O=C(c1ccc(F)c(F)c1)N1CCN2C(=O)c3ccccc3[C@@]12c1ccc(Cl)cc1 [ML375, (S)-9b-(4-chlorophenyl)-1-(3,4-difluorobenzoyl)-2,3-dihydro-1H-imidazo[2,1-a]isoi ndol-5(9bH)-one]
- cue-induced reinstatement of ethanol seeking (active lever) vs vehicle ([1]; P = 0.015): significantly attenuated
- responding for the previously water-paired lever vs vehicle ([1]; P > 0.99): no differences
- sucrose responding vs vehicle ([6]; sucrose 0.05–1% w/v, P = 0.96): did not alter sucrose responding
- water responding vs vehicle ([6]; sucrose-trained rats, P = 1.0): no difference
- binding affinity pKB [7]: 6.87
- cooperativity with ACh binding, Log α [7]: −1.37
- ethanol responding vs vehicle ([9]; 30 mg/kg p.o. at 27 h, 11 h and 3 h prior to test, 10% ethanol, FR3, P = 0.0015): significantly reduced ethanol responding
- responding for water vs vehicle ([9]; 30 mg/kg p.o. at 27 h, 11 h and 3 h prior to test, P = 0.98): no difference
- functional affinity pKB [11]: 6.22
